We go through one compound from PMC11050599, “Novel Tetracyclic Azaphenothiazines with the Quinoline Ring as New Anticancer and Antibacterial Derivatives of Chlorpromazine” (International Journal of Molecular Sciences, 2024).

As a reminder, the IC50 is the concentration at which inhibition is half-maximal. Usually MIC stands for the lowest concentration found to suppress growth.

In test [1] the test system is HaCaT (immortalized human keratinocytes). The test can be described thus: MTT assay, HaCaT normal cells. Conditions: Homo sapiens, HaCaT; MTT, 72 h, normal cells; read-out: IC50 HaCaT (Table 3). The format is cell-based. Put shortly: (§1)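 Cells at 1 × 10^4 per well were exposed to compounds for 72 h, in MEM (HCT116), DMEM high glucose (MDA-MB-231, HaCaT) or RPMI (PC3), each with 10% FBS and 20 mM HEPES. Viability is given as MTT reduction relative to medium-only control (%).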

Test [2] concerns MiaPaCa-2 (pancreas cancer). Briefly: MTT assay, MiaPaCa-2 cells. The format is cell-based, human. Put shortly: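 Test compounds are added to plated cells (1 × 10^4 per well) for 72 h. Cell viability is calculated as the percentage of MTT reduction compared with cells given medium alone.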
In general terms: Formazan colour is commonly taken as a measure of viable cells.

The next test relates to PC3 (prostate cancer). Briefly: MTT assay, PC3 cells. The format is cell-based, human. Put shortly:
as §1

The test system of another test is HCT116 (colon cancer). The test can be described thus: MTT assay, HCT116 cells. It counts as cell-based, human. Put shortly: as §1
The subject of the next test is P. aeruginosa ATCC 15442. The test can be described thus: MIC broth microdilution. It counts as cell-based. Conditions: Pseudomonas aeruginosa, ATCC15442; 19 h, 35 °C; read-out: MIC P. aeruginosa ATCC 15442. Put shortly: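 Two-fold serial broth microdilution in Mueller-Hinton II broth, final inoculum adjusted to […]. Compounds dissolved in DMSO, final solvent at most 1%.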
(In broth dilution the organism is exposed to a series of concentrations in liquid medium.)

A further test relates to cancer cell lines. Briefly: MTT assay, summary over several cell lines. It counts as cell-based, human. The conditions noted are these: Homo sapiens; range over two cell lines not given; read-out: IC50 range against two tested cell lines. On the procedure:
The human cell lines, such as A549 (lung cancer), MDA-MB-231 (breast cancer), MiaPaca-2 (pancreatic cancer), PC3 (metastatic prostate cancer), HCT-116 (colon carcinoma), and HaCaT (immortalized keratinocytes), were sourced from the American Type Culture Collection (ATCC) in Rockville, USA. Culturing conditions varied as follows: HCT116 cells were cultured in MEM (ThermoSci, Waltham, MA, USA), A549, MDA-MB-231, MiaPaca, HaCaT cells in DMEM High Glucose and PC3 cells were cultured in RPMI (Biowest SAS, Nuaillé, France). The growth medium consisted of 10% fetal bovine serum (FBS, Sigma-Aldrich, St. Louis, MO, USA), 20 mM HEPES (Biowest, Nuaillé, France), and antibiotics (100 U/mL of penicillin and 100 μg/mL of streptomycin) from Gibco, Grand Island, NY, USA. […] These compounds were added to 96-well plates containing study cells (1 × 10^4 cells per well) and incubated for 72 h. […] Cell absorbance results were incorporated into the formula for calculating the relative MTT level (%), enabling the assessment of cell viability following exposure to the test compounds. The cell viability percentage represents the MTT reduction in cells treated with the test compounds compared to the control sample, where only the medium was added to the cells.

Test [3] concerns standard bacterial strains. Briefly: MIC, summary over standard bacterial strains. It counts as cell-based. Conditions: Staphylococcus aureus, ATCC 29213, 25923, and 6538; S. aureus strains other than NCTC 4163; read-out: MIC against the other three strains of S. aureus. The text has this: To evaluate the antibacterial effectiveness of chloroquinobenzothiazine derivatives, various bacterial strains from international microbe collections such as the American Type Culture Collection (ATCC) and the National Collection of Type Culture (NCTC) were examined, alongside a panel of clinical rods. This included two Gram-negative organisms, E. coli ATCC 25922 and P. aeruginosa ATCC 15442, and a series of six Gram-positive strains: S. aureus NCTC 4163; S. aureus ATCC 29213, 25923, and 6538; and S. epidermidis ATCC 12228 and 35984. The antimicrobial activity was examined using the Minimal Inhibitory Concentration (MIC) method, following standard CLSI procedures with slight adjustments. The MIC was determined using the two-fold serial broth microdilution method in 96-well microtitration plates containing Mueller-Hinton II broth medium (Becton Dickinson, Franklin Lakes, NJ, USA). The final inoculum for all tested bacteria was adjusted to […] (colony-forming units per milliliter). The stock solution of the tested compounds was prepared in dimethyl sulfoxide (DMSO) and diluted to a maximum of 1% solvent content with a sterile medium.

In test [4] the test system is HCT116 cells. Briefly: Annexin V-FITC/PI apoptosis flow cytometry, HCT116. The format is cell-based, human. A general note: A flow cytometer gives signals particle by particle.
Test [5] concerns HCT116 cells. Briefly: Cell cycle analysis by flow cytometry, HCT116. It counts as cell-based, human. Conditions: IC50, 24 h, compared to the control. In a few lines:
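Cells seeded at 1 × 10^5/well, adhered 24 h; attached and detached cells pooled, fixed overnight in 70% cold ethanol. Staining with RNase and propidium iodide (30 min, 37 °C, dark) preceded flow cytometry of sub-G1, G0/G1, S and G2/M fractions, in quadruplicate.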

Where [6] appears, read: SI = IC50 for normal cell line (HaCaT)/IC50 cancer cell line.
[7] abbreviates: representative dot plot, Figure 4C, IC50, 72 h.

For the compound `CN1CCCCC1CCN1c2cc(Cl)ccc2Sc2cc3ccccc3nc21` (stereo not shown) [Compound 11, 8-Chloro-6-(2-(1-methylpiperidin-2-yl)ethyl)-quino[3,2-b]benzo[1,4]thiazine], the half-inhibitory concentration (IC50) in test [1] was 12.7 ± 1.9 µM; in test [2] (Homo sapiens, MIA PaCa-2, MTT, 72 h, read-out: IC50 MiaPaCa-2), 24.3 ± 3.5 µM; with PC3 (prostate cancer) (Homo sapiens, PC-3, MTT, 72 h, read-out: IC50 PC3), 16.7 ± 1.8 µM; with HCT116 (colon cancer) (Homo sapiens, HCT-116, MTT, 72 h, read-out: IC50 HCT116), 7.7 ± 1.2 µM; with cancer cell lines, 16.1 to 16.7 µM. The “SI MiaPaCa-2” value in test [2] (setting [6]) was found to be 0.5. The “SI PC3” value with PC3 (prostate cancer) (setting [6]) is given as 0.7. Besides, the “SI HCT116” value with HCT116 (colon cancer) (setting [6]) stood at 1.6. Besides, the values for the MIC (with P. aeruginosa ATCC 15442; in test [3]) were above 256 µg/mL and above 128 µg/mL, respectively. In addition, in the test with HCT116 cells [4] (compound at IC50, 72 h), the “cells in late apoptosis/necrosis, HCT116” value was 15.64%. Besides, in the test with HCT116 cells [4] (setting [7]), the “HCT-116: Alive” value is listed as 80.61%. In addition, the “HCT-116: Early Apoptotic” value with HCT116 cells [4] (setting [7]) stood at 4.12%. Moreover, the “HCT-116: Necrotic” value in the test with HCT116 cells [4] (setting [7]) was found to be 9.25%. For the same compound, the “HCT-116: Necrotic/Late Apoptotic” value with HCT116 cells [4] (setting [7]) worked out at 6.03%. Moreover, the “increase in the cell amount at the sub-G1 phase, HCT116” value in the test with HCT116 cells [5] was 2 fold.
